Data published in ChEMBL document CHEMBL4725269, “Exploring the newer oxadiazoles as real inhibitors of human SIRT2 in hepatocellular cancer cells” (Bioorg Med Chem Lett, 2020).

What was measured:
[1] = Antiproliferative activity against human HCCLM3 cells assessed as reduction in cell proliferation measured after 72 hrs by MTT assay; type: functional, cell-based; settings: HCCLM3, 72 h
HepG2 [2] = experiment: Antiproliferative activity against human HepG2 cells assessed as reduction in cell proliferation measured after 72 hrs by MTT assay; type: functional, cell-based; settings: HepG2, 72 h
L02 = experiment: Cytotoxicity against human L02 cells assessed as reduction in cell proliferation measured after 72 hrs by MTT assay; type: cell-based; settings: L02, 72 h
HepG2 [3] = experiment: Cell cycle arrest in human HepG2 cells assessed as accumulation at subG1 phase at 15 uM measured after 24 hrs by FACS based flow cytometry analysis (reference value: 3 %); type: functional
HepG2 [4] = experiment: Reduction in SIRT2 expression in human HepG2 cells at 15 uM by Western blot analysis; type: functional, cell-based; settings: time hrs 24-72, TDE = time-dependent effect
HepG2 [5] = experiment: Reduction in SIRT2 expression in human HepG2 cells measured after 72 hrs by Western blot analysis; type: functional, cell-based; settings: dose microM 5-30, time 72.0 hrs
HepG2 [6] = experiment: Cell cycle arrest in human HepG2 cells assessed as accumulation at subG1 phase at 15 uM measured after 72 hrs by FACS based flow cytometry analysis (reference value: 4 %); type: functional
HepG2 [7] = experiment: Cell cycle arrest in human HepG2 cells assessed as accumulation at subG1 phase at 30 uM measured after 72 hrs by FACS based flow cytometry analysis (reference value: 4 %); type: functional
HepG2 [8] = experiment: Cell cycle arrest in human HepG2 cells assessed as accumulation at subG1 phase at 5 uM measured after 72 hrs by FACS based flow cytometry analysis (reference value: 4 %); type: functional
HepG2 [9] = experiment: Cell cycle arrest in human HepG2 cells assessed as accumulation at subG1 phase at 15 uM measured after 72 hrs by FACS based flow cytometry analysis (reference value: 3 %); type: functional
HepG2 [10] = experiment: Cell cycle arrest in human HepG2 cells assessed as accumulation at subG1 phase at 15 uM measured after 48 hrs by FACS based flow cytometry analysis (reference value: 3 %); type: functional

Molecule `Cn1nc(-c2nnc(-c3ccc(Br)cc3)o2)c2ccccc21` has an IC50 [1] of over 100 µM, an IC50 (HepG2 [2]) of 40 µM and an IC50 (L02) of over 100 µM.

For `Cn1nc(-c2nnc(-c3cccc(Br)c3)o2)c2ccccc21`, the IC50 [1] was over 100 µM, the IC50 (HepG2 [2]) was 24.5 µM and the IC50 (L02) was over 100 µM.

`CC(=O)O[C@H]1C(=O)[C@@]2(C)[C@H]([C@H](OC(=O)c3ccccc3)[C@]3(O)C[C@H](OC(=O)[C@H](O)[C@@H](NC(=O)c4ccccc4)c4ccccc4)C(C)=C1C3(C)C)[C@]1(OC(C)=O)CO[C@@H]1C[C@@H]2O` [PACLITAXEL] gave an IC50 (HepG2 [2]) of 3.9 µM.

`Cn1nc(-c2nnc(-c3ccccc3)o2)c2ccccc21` gave an IC50 [1] of 100 µM, an IC50 (HepG2 [2]) of 37.5 µM and an IC50 (L02) of 84.6 µM.

In the case of `COc1ccc(-c2nnc(-c3nn(C)c4ccccc34)o2)cc1`, the IC50 [1] is reported as over 100 µM, the Activity (HepG2 [3]) is reported as 10% and the inhibition (HepG2 [4]) is reported as “Tde”. The inhibition (HepG2 [5]) was “Dose-dependent effect”, the Activity (HepG2 [6]) was 41% and the IC50 (HepG2 [2]) was 19.5 µM. It also gave an IC50 (L02) of over 100 µM, an Activity (HepG2 [7]) of 55% and an Activity (HepG2 [8]) of 10%. It also gave an Activity (HepG2 [9]) of 55% and an Activity (HepG2 [10]) of 45%.

`Cn1nc(-c2nnc(-c3cccc(Cl)c3)o2)c2ccccc21` gave an IC50 [1] of over 100 µM, an IC50 (HepG2 [2]) of 21.4 µM and an IC50 (L02) of over 100 µM.

`Cc1ccc(C(=O)Nc2ccc(S(=O)(=O)O)c3cc(S(=O)(=O)O)cc(S(=O)(=O)O)c23)cc1NC(=O)c1cccc(NC(=O)Nc2cccc(C(=O)Nc3cc(C(=O)Nc4ccc(S(=O)(=O)O)c5cc(S(=O)(=O)O)cc(S(=O)(=O)O)c45)ccc3C)c2)c1` [SURAMIN] showed an IC50 (HepG2 [2]) of 67.4 µM.

Molecule `Cn1nc(-c2nnc(-c3ccc(O)cc3)o2)c2ccccc21` has an IC50 [1] of over 100 µM, an IC50 (HepG2 [2]) of 86.4 µM and an IC50 (L02) of over 100 µM.

`Cc1cccc(-c2nnc(-c3nn(C)c4ccccc34)o2)c1` showed an IC50 [1] of over 100 µM, an IC50 (HepG2 [2]) of 60 µM and an IC50 (L02) of over 100 µM.

Work on `Cn1nc(-c2nnc(-c3ccc(Cl)cc3)o2)c2ccccc21` yielded an IC50 [1] of over 100 µM, an IC50 (HepG2 [2]) of 42 µM and an IC50 (L02) of over 100 µM.

Work on `Cn1nc(-c2nnc(-c3ccccc3Br)o2)c2ccccc21` yielded an IC50 [1] of over 100 µM, an IC50 (HepG2 [2]) of 22.3 µM and an IC50 (L02) of 89 µM.

With `Cn1nc(-c2nnc(-c3ccccc3Cl)o2)c2ccccc21` the IC50 [1] was over 100 µM, the IC50 (HepG2 [2]) was 45 µM and the IC50 (L02) was over 100 µM.

Work on `Cc1ccc(-c2nnc(-c3nn(C)c4ccccc34)o2)cc1` yielded an IC50 [1] of over 100 µM, an IC50 (HepG2 [2]) of 38.7 µM and an IC50 (L02) of over 100 µM.
